# According to ChEMBL document CHEMBL3885881, “DrugMatrix”:
# Organism: Rattus norvegicus
# Test: DrugMatrix - Regimen: Daily Repeat
# Assay type: toxicity, organism-based, Sprague-Dawley
# Set-up: regimen Daily Repeat, gender Male, age 6-8 weeks
# Conditions: in vivo, po, 1402 mg/kg, route oral GAVAGE, dose level High, vehicle 100 % WATER; for ABSOLUTE BASOPHIL / ABSOLUTE EOSINOPHIL / ABSOLUTE LYMPHOCYTE / ABSOLUTE MONOCYTE / ABSOLUTE SEGMENTED NEUTROPHIL / BASOPHIL / EOSINOPHIL / ERYTHROCYTE COUNT / HEMATOCRIT / HEMOGLOBIN / LEUKOCYTE COUNT / LYMPHOCYTE / MEAN CORPUSCULAR HEMOGLOBIN / MEAN CORPUSCULAR HEMOGLOBIN CONCENTRATION / MEAN CORPUSCULAR VOLUME / MONOCYTE / NEUTROPHIL / NUCLEATED RED BLOOD CELLS / PLATELET COUNT: tissue Blood; for ALANINE AMINOTRANSFERASE / ALBUMIN / ALKALINE PHOSPHATASE / ASPARTATE AMINOTRANSFERASE / BLOOD UREA NITROGEN / CARBON DIOXIDE / CHLORIDE / CHOLESTEROL / CREATINE PHOSPHOKINASE / CREATININE / GLUCOSE / LACTATE DEHYDROGENASE / LIPASE / PHOSPHORUS / POTASSIUM / SODIUM / TOTAL BILIRUBIN / TOTAL PROTEIN / URIC ACID: tissue Plasma
smiles,measurement,setting,value
C[C@H](CCC(=O)O)[C@H]1CC[C@H]2[C@@H]3[C@H](O)C[C@@H]4C[C@H](O)CC[C@]4(C)[C@H]3C[C@H](O)[C@]12C [CHOLIC ACID],ABSOLUTE BASOPHIL,"72 h, time 3 day",0 CELLS/uL
same,ABSOLUTE EOSINOPHIL,"72 h, time 3 day",95.33 CELLS/uL
same,ABSOLUTE LYMPHOCYTE,"72 h, time 3 day",13410.67 CELLS/uL
same,ABSOLUTE MONOCYTE,"72 h, time 3 day",0 CELLS/uL
same,ABSOLUTE SEGMENTED NEUTROPHIL,"72 h, time 3 day",960.67 CELLS/uL
same,BASOPHIL,"72 h, time 3 day",0%
same,EOSINOPHIL,"72 h, time 3 day",0.67%
same,ERYTHROCYTE COUNT,"72 h, time 3 day",5.62 x10E6/uL
same,HEMATOCRIT,"72 h, time 3 day",34.5%
same,HEMOGLOBIN,"72 h, time 3 day",13.7 G/DL
same,LEUKOCYTE COUNT,"72 h, time 3 day",14.47 x10E3/uL
same,LYMPHOCYTE,"72 h, time 3 day",92.67%
same,MEAN CORPUSCULAR HEMOGLOBIN,"72 h, time 3 day",24.47 pg
same,MEAN CORPUSCULAR HEMOGLOBIN CONCENTRATION,"72 h, time 3 day",39.8 G/DL
same,MEAN CORPUSCULAR VOLUME,"72 h, time 3 day",61.47 fL
same,MONOCYTE,"72 h, time 3 day",0%
same,NEUTROPHIL,"72 h, time 3 day",6.67%
same,NUCLEATED RED BLOOD CELLS,"72 h, time 3 day",0 /100WBC
same,PLATELET COUNT,"72 h, time 3 day",1053.33 x10E3/uL
same,ALANINE AMINOTRANSFERASE,"72 h, time 3 day",55.33 u/L
same,ALBUMIN,"72 h, time 3 day",4.17 G/DL
same,ALKALINE PHOSPHATASE,"72 h, time 3 day",359.33 u/L
same,ASPARTATE AMINOTRANSFERASE,"72 h, time 3 day",84.67 u/L
same,BLOOD UREA NITROGEN,"72 h, time 3 day",16 mg/dL
same,CARBON DIOXIDE,"72 h, time 3 day",32 mmol/L
same,CHLORIDE,"72 h, time 3 day",101.67 MEQ/L
same,CHOLESTEROL,"72 h, time 3 day",91.33 mg/dL
same,CREATINE PHOSPHOKINASE,"72 h, time 3 day",224 u/L
same,CREATININE,"72 h, time 3 day",0.19 mg/dL
same,GLUCOSE,"72 h, time 3 day",152 mg/dL
same,LACTATE DEHYDROGENASE,"72 h, time 3 day",124.33 u/L
same,LIPASE,"72 h, time 3 day",9.67 u/L
same,PHOSPHORUS,"72 h, time 3 day",12.63 mg/dL
same,POTASSIUM,"72 h, time 3 day",7.15 MEQ/L
same,SODIUM,"72 h, time 3 day",144.2 MEQ/L
same,TOTAL BILIRUBIN,"72 h, time 3 day",0.2 mg/dL
same,TOTAL PROTEIN,"72 h, time 3 day",5.77 G/DL
same,URIC ACID,"72 h, time 3 day",1.93 mg/dL
same,ABSOLUTE BASOPHIL,"120 h, time 5 day",0 CELLS/uL
same,ABSOLUTE EOSINOPHIL,"120 h, time 5 day",0 CELLS/uL
same,ABSOLUTE LYMPHOCYTE,"120 h, time 5 day",13701.33 CELLS/uL
same,ABSOLUTE MONOCYTE,"120 h, time 5 day",565.67 CELLS/uL
same,ABSOLUTE SEGMENTED NEUTROPHIL,"120 h, time 5 day",1233 CELLS/uL
same,BASOPHIL,"120 h, time 5 day",0%
same,EOSINOPHIL,"120 h, time 5 day",0%
same,ERYTHROCYTE COUNT,"120 h, time 5 day",5.73 x10E6/uL
same,HEMATOCRIT,"120 h, time 5 day",34.97%
same,HEMOGLOBIN,"120 h, time 5 day",13.73 G/DL
same,LEUKOCYTE COUNT,"120 h, time 5 day",15.5 x10E3/uL
same,LYMPHOCYTE,"120 h, time 5 day",88.67%
same,MEAN CORPUSCULAR HEMOGLOBIN,"120 h, time 5 day",24 pg
same,MEAN CORPUSCULAR HEMOGLOBIN CONCENTRATION,"120 h, time 5 day",39.3 G/DL
same,MEAN CORPUSCULAR VOLUME,"120 h, time 5 day",60.97 fL
same,MONOCYTE,"120 h, time 5 day",3.67%
same,NEUTROPHIL,"120 h, time 5 day",7.67%
same,NUCLEATED RED BLOOD CELLS,"120 h, time 5 day",0.67 /100WBC
same,PLATELET COUNT,"120 h, time 5 day",1207 x10E3/uL
same,ALANINE AMINOTRANSFERASE,"120 h, time 5 day",112 u/L
same,ALBUMIN,"120 h, time 5 day",4.27 G/DL
same,ALKALINE PHOSPHATASE,"120 h, time 5 day",330 u/L
same,ASPARTATE AMINOTRANSFERASE,"120 h, time 5 day",171 u/L
same,BLOOD UREA NITROGEN,"120 h, time 5 day",16.33 mg/dL
same,CARBON DIOXIDE,"120 h, time 5 day",30.33 mmol/L
same,CHLORIDE,"120 h, time 5 day",101.67 MEQ/L
same,CHOLESTEROL,"120 h, time 5 day",94.33 mg/dL
same,CREATINE PHOSPHOKINASE,"120 h, time 5 day",383.67 u/L
same,CREATININE,"120 h, time 5 day",0.27 mg/dL
same,GLUCOSE,"120 h, time 5 day",120.67 mg/dL
same,LACTATE DEHYDROGENASE,"120 h, time 5 day",380.33 u/L
same,LIPASE,"120 h, time 5 day",12 u/L
same,PHOSPHORUS,"120 h, time 5 day",12.13 mg/dL
same,POTASSIUM,"120 h, time 5 day",7.47 MEQ/L
same,SODIUM,"120 h, time 5 day",144.4 MEQ/L
same,TOTAL BILIRUBIN,"120 h, time 5 day",0.2 mg/dL
same,TOTAL PROTEIN,"120 h, time 5 day",6.23 G/DL
same,URIC ACID,"120 h, time 5 day",2.1 mg/dL
